Experimental data from article PMC6867895 (mBio, 2019).
Values after ≈ are worked out from the molar mass of the structure shown. Like-named read-outs stand apart in the source and are kept apart here.

Experiments:
E. coli DH10B pBCSK- = assay: microbe, parasite or virus in culture; details: Escherichia coli, DH10BPBCSK, read-out: MIC
[1] = test system: E. coli DH10B pBCSK- blaVIM-2; assay: microbe, parasite or virus in culture; details: Escherichia coli, read-out: MIC
VIM-2 [2] = molecular target: T1, VIM-2 (Pseudomonas aeruginosa, UniProt Q9K2N0); details: read-out: Parameter by metallo-β-lactamase / VIM-2 / KM; 50 mM HEPES pH 7.0, 10 μM added ZnSO4, 25°C
T1 construct: gene blaVIM-2

VIM-2 [3] = molecular target: T1, VIM-2; details: read-out: Parameter by metallo-β-lactamase / VIM-2 / KM; 50 mM HEPES pH 7.0, 10 μM added ZnSO4, 25°C; remark: listed apart in the source
VIM-2 [4] = molecular target: T1, VIM-2; assay: initial-rate hydrolysis, absorbance […] nm (product formation); assay type: biochemical; details: read-out: Parameter by metallo-β-lactamase / VIM-2 / KM; 50 mM HEPES pH 7.0, 10 μM added ZnSO4, 25°C
VIM-2 [5] = molecular target: T1, VIM-2; details: read-out: Parameter by metallo-β-lactamase / VIM-2 / KM; 50 mM HEPES pH 7.0, 10 μM added ZnSO4, 25°C; remark: listed apart in the source

Compound	MIC (E. coli DH10B pBCSK-)	MIC [1]	Km (VIM-2 [2])	Km (VIM-2 [3])	Km (VIM-2 [4])	Km (VIM-2 [5])
C[C@@H](O)[C@H]1C(=O)N2C(C(=O)O)=C(S[C@@H]3CN[C@H](C(=O)N(C)C)C3)[C@H](C)[C@H]12 [Meropenem]	0.03 µg/mL (≈ 0.0782 µM)	0.5 µg/mL (≈ 1.3 µM)	5 ± 0.8 µM			
CC1(C)S[C@@H]2[C@H](NC(=O)[C@H](N)c3ccccc3)C(=O)N2[C@H]1C(=O)O [Ampicillin]	4 µg/mL (≈ 11.4 µM)	1020 µg/mL (≈ 2930 µM)		84 ± 7 µM		
CC(=O)OCC1=C(C(=O)O)N2C(=O)[C@@H](NC(=O)Cc3cccs3)[C@H]2SC1 [Cephalothin]	4 µg/mL (≈ 10.1 µM)	256 µg/mL (≈ 646 µM)				
C[C@@H](O)[C@H]1C(=O)N2C(C(=O)O)=C(S[C@@H]3CN[C@H](C(=O)Nc4cccc(C(=O)O)c4)C3)[C@H](C)[C@H]12 [Ertapenem]	0.0075 µg/mL (≈ 0.0158 µM)	0.25 µg/mL (≈ 0.526 µM)				
Chromacef					11 ± 2 µM	
CC(C)(O/N=C(\C(=O)N[C@@H]1C(=O)N2C(C(=O)[O-])=C(C[n+]3ccccc3)CS[C@H]12)c1csc(N)n1)C(=O)O [Ceftazidime]	0.5 µg/mL (≈ 0.915 µM)	32 µg/mL (≈ 58.5 µM)				90 ± 11 µM
C[C@@H](O)[C@H]1C(=O)N2C(C(=O)O)=C(SCCNC=N)C[C@H]12 [Imipenem]	0.5 µg/mL (≈ 1.67 µM)	4 µg/mL (≈ 13.4 µM)				
